{"source": "patent US11793845B2", "about": "“Composition for ameliorating peripheral sensory neuropathy” (KINKI UNIVERSITY, priority 2016, dated 2023)", "key": {"[1]": {"system": "Peripheral Sensory Neuropathy Induced by Paclitaxel in Mice", "test": "cold plate test, paclitaxel-induced peripheral sensory neuropathy", "type": "in vivo", "conditions": "paclitaxel 6 mg/kg alone; Day 3", "method": "The effect of the Lentinus edodes mycelium extract on the paresthesia to cold stimulation was tested by performing the cold plate test. The mice in the three groups in the above (1) were put on a cold plate set to 10° C. and a response time for avoidance (a latency) was measured. The shorter latency means that the mouse avoids the cold stimulation of the cold plate more.\nIn the present test, the mice were divided into four groups by a difference in test objects. As in Example 1, male Balb/c mice of 6 to 7 weeks old were used. The mice were divided into a total of four groups, a control group, a paclitaxel administration group, and two different paclitaxel and Lentinus edodes mycelium extract administration groups (paclitaxel+Lentinus edodes mycelium extract administration groups). […] Further, a group in which the Lentinus edodes mycelium extract was administered to each mouse once a day at a dose of 1 g/kg (hereinafter referred to as “1 g/kg administration group”) and a group in which the Lentinus edodes mycelium extract was administered to each mouse once a day at a dose of 2 g/kg (hereinafter referred to as “2 g/kg administration group”) were prepared.\nEvaluation was performed in the same manner as in the test with oxaliplatin. Referring to FIG. 4, the horizontal axis indicates the elapsed time after administration (days) and the vertical axis indicates the avoidance response time (seconds). Open circles with a solid line represent the control group. Filled circles with a solid line represent the group in which only paclitaxel was administered. Open squares with a dash line and filled squares with a dash line represent the groups in which paclitaxel and the Lentinus edodes mycelium extract were administered at the same time (paclitaxel+Lentinus edodes mycelium extract administration groups). […] When the difference with the control group was determined to be significant using a significance level of 5%, the data were marked by “*”. […]"}, "[2]": {"system": "Peripheral Sensory Neuropathy Induced by Paclitaxel in Mice", "test": "von Frey test, paclitaxel-induced peripheral sensory neuropathy", "type": "in vivo", "conditions": "paclitaxel 6 mg/kg once a week alone, compared with control group; three days after the administration", "from_the_text": "The mice in the three groups in the above (1) were put in a cage and a filament having a strength of 0.16 g was pressed on the plantar surface of the leg to measure the number of times (a score) of avoidance response.\nMale Balb/c mice of 6 to 7 weeks old were used as in Example 1. The mice were divided into three groups: a control group, a paclitaxel administration group, and a paclitaxel and Lentinus edodes mycelium extract administration group (paclitaxel+Lentinus edodes mycelium extract administration group). Paclitaxel was administered to each mouse once a day at a dose of 6 mg/kg. Further, the Lentinus edodes mycelium extract was administered to each mouse once a day at a dose of 2 g/kg.\nFurther, the number of times of administration was set to once a week (on Day 0, Day 7, and Day 14) for paclitaxel and daily (from Day 0 to Day 15) for the Lentinus edodes mycelium extract in both the von Frey test and the cold plate test below.\nEvaluation was performed in the same manner as in the test with oxaliplatin. Referring to FIG. 3, the horizontal axis indicates an elapsed time after administration (days) and the vertical axis indicates the avoidance response (scores). Open circles with a solid line represent the control group. Filled circles with a solid line represent the group in which only paclitaxel was administered. Open squares with a dash line represent the group in which paclitaxel and the Lentinus edodes mycelium extract were administered (paclitaxel+Lentinus edodes mycelium extract administration group). When the difference with the control group was determined to be significant using a significance level of 5%, the data were marked by “*”.\nIn the present test, the mice were divided into six groups by a difference in test objects. As in Example 1, male Balb/c mice of 6 to 7 weeks old were used. […]"}}}
{"smiles": "CC(=O)O[C@H]1C(=O)[C@@]2(C)[C@H]([C@H](OC(=O)c3ccccc3)[C@]3(O)C[C@H](OC(=O)[C@H](O)[C@@H](NC(=O)c4ccccc4)c4ccccc4)C(C)=C1C3(C)C)[C@]1(OC(C)=O)CO[C@@H]1C[C@@H]2O", "note": "[paclitaxel]", "values": [{"measurement": "latency to the cold stimulation (avoidance response time), cold plate test", "setting": "[1]", "value": "significantly reduced"}, {"measurement": "avoidance response (scores), von Frey test", "setting": "[2]", "value": "significantly increased"}]}
